The results in this text go back to US20030138429A1, “Compositions and methods for inhibiting metastasis” (priority 2001, published 2003).

“Also recorded” adds a separate entry of the source.

The test system of test [1] is 1-LN human prostate tumor cells. The test can be described thus: Binding of 125I-labeled Pg 2 glycoforms to 1-LN cells. As to conditions: for BINDING +6-AHA: binding to surface of 1-LN cells in presence of 6-AHA; for BINDING +6-AHA / BINDING +L-lactose: Yes/No; for BINDING +L-lactose: binding to surface of 1-LN cells in presence of L-lactose; for Binding to 1-LN cells: in words; for Bound (Molecules × 10^5/cell): maximal binding, mean ± SD. As to the method:
Ligand Binding Analysis—Cells were grown in tissue culture plates until the monolayers were confluent. Prior to use in binding assays, the cells were washed in HBSS. All binding assays were performed at 4° C. in RPMI 1640 containing 2% bovine serum ablumin (BSA). Increasing concentrations of ^125I-labeled Pg 2 glycoforms were incubated with cells for 60 min in 48-well or 96-well culture plates, respectively. Free ligand was separated from bound by aspirating the incubation mixture by and washing the cell monolayers rapidly three times with RPMI 1640 containing 2% BSA. The cells were then lyzed with 0.1 M NaOH, and bound radioactivity was determined in a Pharmacia LKB Biotechnology 1272-gamma counter. Molecules of ligand bound were calculated after substraction of non-specific binding measured in the presence of nonlabeled 100 μM Pg 2. Estimates for dissociation constant (Kd) values and maximal binding of Pg 2 glycoforms (Bmax) were determined by fitting data directly to the Langmuir isotherm using the statistical program SYStat® for Windows.
Binding of Single Pg 2 Glycoforms to 1-LN Human Prostate Tumor Cells—Binding of ^125I-labeled single Pg 2 glycoforms to 1-LN cells was determined as described under Experimental Procedures. Native Pg 2 has six glycoforms which differ in their sialic acid content.
In order to assess the binding mechanism of the individual Pg 2 glycoforms to 1-LN cells, we studied their activation by cells incubated with each glycoform in the presence of 6-aminohexanoic acid (6-AHA) and L-lactose. The antifibrinolytic amino acid 6-AHA prevents interaction of Pg L-lysine binding sites with several cell membrane-associated components. L-lactose is a sugar which intereferes with binding of Neu 5-AC (α2-3) or (α2-6) residues to sialic acid binding proteins and inhibits binding of Native Pg 2 to DPP IV on the surface of rheumatoid synovial fibroblasts.

The target in test [2] is T1, DPP IV isolated from 1-LN cell membranes (Homo sapiens, UniProt P27487).
T1 construct: DPP IV from 1-LN cell membranes was purified to homogeneity as described under Experimental Procedures; endogenous in cells; host or cells: 1-LN human prostate tumor cells; Membranes were solubilized with Triton X-100; The enzyme was then purified on DEAE-Sepharose, Gly-Leu-Sepharose, concanavalin A-Sepharose and by gel filtration
Briefly: Solid phase radioligand binding of Pg 2 glycoforms to immobilized DPP IV. As to conditions: for Binding to immobilized DPP IV: DPP IV 1 μg/ml coated on 96-well plates, in words. As to the method:
Purification of DPP IV from 1-LN Cell Membranes—Cells grown in 20 culture flasks (150 cm^2) were detached with 10 mM EDTA in Hanks' balanced salt solution (HBSS) and pelleted by centrifugation. The cell pellet was suspended in 10 ml of 20 mM Hepes, pH 7.2, containing 0.25 M sucrose and 0.5 mg/ml each of the following proteinase inhibitors: antipain-HCl, bestatin, chymostatin, transepoxysuccinyl-L-leucylamido-(4-guanidino)butane (E-64), leupeptin, pepstatin, O-phenanthroline, and aprotinin. Cells were lyzed by sonication on ice (five 10 s bursts with 30 s intervals). All procedures were performed at 4° C. The homogenate was centrifuged at 800×g for 15 min to remove unbroken cells and nuclei, followed by centrifugation of the supernatant at 50,000×g for 1 h. The pellet containing cell membranes was resuspended in 20 mM Tris-HCl, pH 8.0, containing 1% (v/v) Triton X-100 to solubilize membranes and centrifuged again at 50,000×g for 30 min to remove insoluble materials. DPP IV activity in this supernatant and in all the following purification steps was monitored by a chromogenic assay using the DPP IV substrate Gly-Pro-pNA [36]. The enzyme was sequentially purified to homogeneity using DEAE-Sepharose ion exchange chromatography and Gly-Leu-Sepharose affinity chromatography, followed by chromatography on concanavalin A-Sepharose and gel filtration on a Sepharose S-200 column. These steps yielded fully active DPP IV (˜40 μg/1×10^9 cells). […] A sample of the protein was analyzed by matrix-assisted laser desorption ionization-MS, and the obtained mass spectrometric peptide maps (30 peptides) were used to identify DPP IV in the OWL Protein database release 29.6 [38,39].
Solid Phase Radioligand Binding Studies—To study specific binding of Pg 2 glycoforms to immobilized DPP IV purified from 1-LN cells, 96-well strip plates were coated with DPP IV (1 μg/ml in 0.1 M sodium carbonate, pH 9.6, 200 μl/well, 37° C., 2 h). After coating, plates were washed with 200 μl of 10 mM sodium phosphate, 100 mM NaCl, pH 7.4, containing 0.05% Tween-80 (PBS-Tween) to remove unbound protein. Non-specific sites were blocked by incubating with PBS-Tween containing 2% BSA at room temperature for 1 h. Plates were rinsed twice with 200 μl of PBS-Tween, air dried, and stored at 4° C. For assays, increasing concentrations of ^125I-labeled Pg 2 glycoforms, with or without 50-fold excess of unlabeled ligands, were added to triplicate wells and incubated at 37° C. for 1 h. Following incubation, the supernatants were removed and the plates rinsed three times with 200 μl PBS-Tween. Wells were stripped from the plates and radioactivity measured. Specific binding was calculated by substraction of non-specific binding measured in the presence of unlabeled ligand.
Binding of Pg 2 Glycoforms to Immobilized DPP IV Isolated from 1-LN Cell Membranes—Once identified as a Pg receptor, DPP IV from 1-LN cell membranes was purified to homogeneity as described under Experimental Procedures. […] A blot binding assay with mAb clone in the Mr˜120,000 size range. […] DPP IV immobilization on cell culture plates and binding assays of Pg 2 glycoforms were performed as described under Experimental Procedures.

The test system of the next test is 1-LN cells. Briefly: In vitro Matrigel invasion assay (modified Boyden chamber). The format is cell-based, human. As to the method:
In Vitro Invasion Assay—The invasive activity in vitro was assessed by determining the ability of 1-LN cells to invade Matrigel® [47]. Polycarbonate filters (8-μm pore size; Becton Dickinson, Franklin Lakes, N.J.) were coated with Matrigel (12 μg/filter) and placed in a modified Boyden chamber. Cells (1×10^5) were added to the upper chamber in serum-free RPMI 1640 medium, or medium containing purified Pg 2 glycoforms in the absence and presence of anti-DPP IV, anti-u-PA or anti-MMP-9 IgGs, and incubated for 48 h in a humidified atmosphere. Following incubation, non-invading cells were removed from the upper chamber with a cotton swab, and filters were excised and stained with Cyto-Quik™ (Fisher Scientific, Fair Lawn, N.J.). Cells on the lower surface of the filter were enumerated using an ocular micrometer and counting a minimum of five high-powered fields. Each experiment was performed twice with triplicate samples.
Effect of Pg on 1-LN Cellular Invasion—Pg enhances the ability of prostate cancer PC-3 and DU-145 cell lines to penetrate the synthetic basement membrane Matrigel® [54]. To determine whether Pg regulates invasion via secretion of MMP-9, 1-LN cells were incubated with different inhibiting antibodies in the presence of purified Pg 2 glycoforms.

Where [3] appears, read: 125I-labeled glycoform, 1-LN cell monolayers, serum-free RPMI 1640, mean ± SD.
Where [4] appears, read: 125I-labeled glycoform, 1-LN cell monolayers.
Where [5] appears, read: Serum-Free Medium + glycoform 0.1 μM.
Setting [6] is: glycoform 0.1 μM +Anti-DPP IV IgG 50 μg/ml.
Where [7] appears, read: glycoform 0.1 μM +Anti-MMP-9 IgG 20 μg/ml.
Where [8] appears, read: glycoform 0.1 μM +Anti-u-PA IgG 100 μg/ml.

T1 sequence (P27487 whole entry): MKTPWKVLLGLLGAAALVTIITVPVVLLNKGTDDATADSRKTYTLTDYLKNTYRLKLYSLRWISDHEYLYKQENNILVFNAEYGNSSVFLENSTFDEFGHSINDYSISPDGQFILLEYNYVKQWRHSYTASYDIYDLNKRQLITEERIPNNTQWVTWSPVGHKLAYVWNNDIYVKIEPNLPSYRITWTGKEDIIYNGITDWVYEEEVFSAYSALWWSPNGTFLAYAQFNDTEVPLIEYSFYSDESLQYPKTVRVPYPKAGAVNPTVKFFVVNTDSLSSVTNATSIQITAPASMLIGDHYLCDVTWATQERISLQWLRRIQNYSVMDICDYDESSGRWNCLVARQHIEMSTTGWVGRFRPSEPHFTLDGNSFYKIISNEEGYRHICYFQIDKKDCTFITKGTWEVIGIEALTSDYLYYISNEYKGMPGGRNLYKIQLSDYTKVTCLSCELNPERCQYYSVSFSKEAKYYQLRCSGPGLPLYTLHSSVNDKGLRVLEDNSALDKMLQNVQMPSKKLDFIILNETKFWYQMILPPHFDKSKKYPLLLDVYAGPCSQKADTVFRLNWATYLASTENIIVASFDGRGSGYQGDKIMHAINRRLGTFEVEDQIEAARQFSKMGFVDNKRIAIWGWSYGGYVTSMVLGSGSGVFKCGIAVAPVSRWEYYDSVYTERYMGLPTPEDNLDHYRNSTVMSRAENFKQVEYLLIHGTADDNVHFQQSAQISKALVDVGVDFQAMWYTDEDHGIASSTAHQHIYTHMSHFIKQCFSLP

Take “Pg 2β: glycoform of human plasminogen type 2 purified from plasma; 2.2 mol sialic acid/mol Pg”: in test [1] (setting [3]), binding was put at a Kd of 7.4 ± 1.86 nM. Moreover, in test [1], the “BINDING +6-AHA” value is “No”, the “BINDING +L-lactose” value was “Yes” and the “Binding to 1-LN cells” value was “bind to 1-LN cells in a dose-dependent manner with high affinity”. Moreover, the “Bound (Molecules × 10^5/cell)” value in test [1] (setting [4]) was found to be 8.3 ± 1.3 Molecules × 10^5/cell. The “Binding to immobilized DPP IV” value in test [2] was “No specific binding”. The “Relative Invasion (Number of Cells/Field)” value in the test with 1-LN cells (setting [5]) is listed as 9.4 ± 2.1 Number of Cells/Field.

With “Pg 2φ: glycoform of human plasminogen type 2 purified from plasma; 13.65 mol sialic acid/mol Pg”, the “Kd (nM)” value in test [1] (setting [3]) is recorded as “No Binding”. Besides, in test [1], the “Binding to 1-LN cells” value is reported as “does not bind; also recorded: No binding”. Further, the “Binding to immobilized DPP IV” value in test [2] is listed as “No specific binding”. The “Relative Invasion (Number of Cells/Field)” value in the test on 1-LN cells (setting [5]) was 6.8 ± 1.3 Number of Cells/Field.

For “Pg 2γ: glycoform of human plasminogen type 2 purified from plasma; 2.95 mol sialic acid/mol Pg”, binding in test [1] (setting [3]) was put at a Kd of 10.6 ± 1.43 nM. In test [1], the “BINDING +6-AHA” value is “Yes”. Also, the “BINDING +L-lactose” value in test [1] is listed as “No”. Also, the “Binding to 1-LN cells” value in test [1] is given as “bind to 1-LN cells in a dose-dependent manner with high affinity”. The “Bound (Molecules × 10^5/cell)” value in test [1] (setting [4]) turned out to be 8.6 ± 1.7 Molecules × 10^5/cell. Besides, the “Binding to immobilized DPP IV” value in test [2] is “bind to this DPP IV in a dose-dependent and saturable manner”. Also, the “Relative Invasion (Number of Cells/Field)” value in the test on 1-LN cells (setting [5]) is reported as 7.8 ± 1.6 Number of Cells/Field; with 1-LN cells (setting [6]) it was 4.6 ± 2.7 Number of Cells/Field; in the test on 1-LN cells (setting [7]), 2.1 ± 1.2 Number of Cells/Field; with 1-LN cells (setting [8]), 5.3 ± 2.8 Number of Cells/Field.

Regarding “Pg 2α: glycoform of human plasminogen type 2 purified from plasma; 1.3 mol sialic acid/mol Pg”, binding in test [1] (setting [3]) was characterised by a dissociation constant (Kd) of 24.3 ± 1.33 nM. In test [1], the “BINDING +6-AHA” value is on record as “No”, the “BINDING +L-lactose” value is “Yes” and the “Binding to 1-LN cells” value is recorded as “bind to 1-LN cells in a dose-dependent manner with high affinity”. In addition, the “Bound (Molecules × 10^5/cell)” value in test [1] (setting [4]) came out at 13.0 ± 4.6 Molecules × 10^5/cell. Further, the “Binding to immobilized DPP IV” value in test [2] was “No specific binding”. Moreover, in the test with 1-LN cells (setting [5]), the “Relative Invasion (Number of Cells/Field)” value is 13.5 ± 3.4 Number of Cells/Field.

In turn, “Pg 2δ: glycoform of human plasminogen type 2 purified from plasma; 5.77 mol sialic acid/mol Pg” displayed a Kd in test [1] (setting [3]) of 13.6 ± 1.04 nM. For the same compound, the “BINDING +6-AHA” value in test [1] is given as “Yes”. For the same compound, the “BINDING +L-lactose” value in test [1] is reported as “No”. Also, in test [1], the “Binding to 1-LN cells” value is on record as “bind to 1-LN cells in a dose-dependent manner with high affinity”. Besides, the “Bound (Molecules × 10^5/cell)” value in test [1] (setting [4]) is 18.1 ± 2.4 Molecules × 10^5/cell. In addition, in test [2], the “Binding to immobilized DPP IV” value was “bind to this DPP IV in a dose-dependent and saturable manner”. For the same compound, the “Relative Invasion (Number of Cells/Field)” value is 9.2 ± 2.5 Number of Cells/Field in the test on 1-LN cells (setting [5]), 10.4 ± 3.1 Number of Cells/Field in the test on 1-LN cells (setting [6]), 1.8 ± 1.0 Number of Cells/Field with 1-LN cells (setting [7]) and 7.8 ± 2.6 Number of Cells/Field in the test with 1-LN cells (setting [8]).

In the case of `OC[C@@H]1O[C@H](O[C@@H]2[C@@H](O)[C@H](O)C(O)O[C@H]2CO)[C@@H](O)[C@H](O)[C@@H]1O` (stereo partly drawn) [L-lactose, reference compound], the “Inhibition of binding of single Pg 2 glycoforms to 1-LN cells” value in test [1] (125I-labeled glycoform 0.1 μM, increasing concentrations of inhibitor) was “inhibited binding of Pgs 2γ, 2δ, and 2ε”. The “Inhibition of binding of 125I-labeled Pg 2γ, 2δ and 2ε to DPP IV” value in test [2] (glycoforms 0.1 μM each, increasing concentrations of L-lactose) was “progressively inhibited”.

As for “Pg 2ε: glycoform of human plasminogen type 2 purified from plasma; 5.34 mol sialic acid/mol Pg”, in test [1] (setting [3]), the Kd turned out to be 3.8 ± 0.83 nM. Further, the “BINDING +6-AHA” value in test [1] is on record as “Yes”. The “BINDING +L-lactose” value in test [1] is on record as “No”. The “Binding to 1-LN cells” value in test [1] is on record as “bind to 1-LN cells in a dose-dependent manner with high affinity”. Further, the “Bound (Molecules × 10^5/cell)” value in test [1] (setting [4]) was found to be 9.4 ± 0.8 Molecules × 10^5/cell. In addition, in test [2], the “Binding to immobilized DPP IV” value is “bind to this DPP IV in a dose-dependent and saturable manner”. Further, the “Enhancement of cellular invasion” value in the test on 1-LN cells (Matrigel invasion by 1-LN cells) is 6-7 fold. Also, the “Relative Invasion (Number of Cells/Field)” value in the test on 1-LN cells (setting [5]) was 46.6 ± 5.4 Number of Cells/Field; in the test on 1-LN cells (setting [6]), 3.1 ± 1.6 Number of Cells/Field; in the test with 1-LN cells (setting [7]), 1.5 ± 1.0 Number of Cells/Field; in the test with 1-LN cells (setting [8]) it was 2.1 ± 1.3 Number of Cells/Field.

Broadly, the Kd is the constant that tells how readily two partners part at equilibrium. A lower Kd goes with higher affinity.
